Measured values: patent US20040267283A1, “Method, device and kit for body decoration” (priority 2003, published 2004)
Blank lines part the entries; values can stand above or below the compound they belong to.

Tests used:
human = conditions: reason for choosing the additional dyes; cited from earlier work
swine skin = assay: In-vitro skin penetration, hydrogel patches on stretched skin (vertical diffusion cells without cell tops), tape stripping; assay type: in vitro ADME; conditions: for Depth of penetration (Tape strips = TS): skin cleaned with 10% lactic acid
Procedure: In the second part of the in-vitro skin penetration study, the color application included the use of a hydrogel patch and dye FD&C Red no. 40 and additional dyes, Acid Blue 1 (Blue V) and Indocyanine green, on the swine skin. All chemicals used were analytical grade, obtained from standard supply houses (Sigma, VWR, etc.). […] In these experiments, the depth of penetration was tested for the additional dyes using iontophoresis and/or electroosmosis. Additionally, extensive work was done in order to establish a shaped tattoo that is sharp and has strong color imprint. The experiments were also directed to the effect of the application duration on the tattoo life span. The following properties of the tattoo were measured to determine the effects of iontophoresis on the dyes and pigments' skin penetration: uniformity of the dyeing by observation; penetration depth by tape stripping; and water durability by washing the skin with tap water.
The experiments performed in this second part of the study are described below. Experiments 2.1-2.8 and 2.10-2.14 were conducted on in-vitro swine skin. Experiments 2.9, 2.15, and 2.16 were conducted on in-vivo human skin. FIGS. 6-14 illustrate the body decoration results from the experiments.
This experiment was conducted to determine the dye penetration depth of stretched skin, as would be the case on the subject's body area. In the vertical diffusion cells without the cell tops, the skin was stretched with the cell clamps. To increase the water content of the hydrogel in the patches, the hydrogel was soaked with ddw for 2 minutes. Excess water was then absorbed. Tissue paper heart-shaped pieces were soaked in Blue V solution (100 mg/ml in ddw). The blue heart shapes were placed on the patches' hydrogel and removed a few seconds later, leaving a blue heart-shaped imprint on the hydrogel. The hydrogel patches with the blue heart-shaped imprint were placed on the skin after the skin was cleaned with 10% lactic acid. In the active experiments, the patch wires were connected to a power supply tuned to 0.5 mAmp (0.5 mAmp/cm^2). […] The dye penetration depth was determined by tape stripping.
Blue heart-shaped tattoos were created, as described before in Experiment 6. This experiment was conducted to sharpen the tattoo by soaking the hydrogel in ddw for only few seconds.
In this experiment, the patches' hydrogel content was changed. Instead of KCl, the hydrogel contained NaCl. 100 mg/ml Blue V in ddw with 10% ethanol was used to create the blue heart-shaped imprint. The assay lasted 20 minutes and was done in duplicates. […] The penetration depth was lower with NaCl than KCl in Experiment 2.6.

human skin = assay: In-vivo human skin tattoo with imprinted hydrogel patches; conditions: Exp 2.16, human study, star shape, 50 mg/ml in ddw, 0.04 mAmp, 60 min, skin cleaned with 10% lactic acid
[1] = reason for choosing the additional dyes; cited from earlier work
swine ear skin = test system: swine ear skin
Procedure: An in-vitro skin penetration study was conducted to determine which combination of parameters results in the maximum amount of active substance, e.g., color formulation, being delivered into the skin, i.e., the dermis and epidermis, but not through the skin, i.e., beneath the epidermis.
The in-vitro skin penetration study generally included the following test procedure. Decoration ink, as in embodiments of the present invention, was applied on a piece of swine ear skin. The swine skin was excised to full thickness (epidermis and dermis) to an approximate depth of 500-1000 μm. […]
At the end of the exposure period, the entire receptor compartment was drained and the solution reserved for subsequent analysis of the dye(s) and/or pigment(s). […] The depth of penetration was measured by noting the number of tape strippings required to remove the ink. […] The ink was determined quantitatively using customary analytical procedures (e.g., HPLC, UV-Vis spectrum, GC, radiolabeled detection, etc.), as applicable. […]
In these experiments, the enhancing effect of iontophoresis and/or electroosmosis on skin penetration of different dyes was assessed. […] The following properties were measured to determine the enhancing effect of iontophoretic induction on the dyes' skin penetration: uniformity of the dyeing by observation; and penetration depth by tape stripping. […]

mice = conditions: cited from earlier work; for Toxicity, LD50: IP in mice
[2] = Solution conductivity of the dyes (current at applied voltage); assay type: physicochemical
Procedure: (§1) In the first part of the in-vitro skin penetration study, the color application included the use of dyes D&C Green no. 6, FD&C Blue no. 1, FD&C Yellow no. 6, and FD&C Red no. 40. All chemicals used were analytical grade, obtained from standard supply houses (Sigma, VWR, etc.). The dyes were dissolve in ddw and the solution conductivity was measured using a dedicated apparatus. The target conductivity was defined as a minimum of 1 mAmp/cm^3 current at 3 volts. If such conductivity was not attained, the dye concentration and/or the voltage were increased. See Table 1 for the solubility and conductivity of the dyes.

Solubility of the dyes [3] = assay type: physicochemical
Procedure: as §1, with “increased.” for “increased. See Table 1 for the solubility and conductivity of the dyes.”

Solubility of the dyes [4] = assay type: physicochemical; remark: listed apart in the source
rabbit = conditions: SC in rabbit; cited from earlier work

SMILES: CCN(CC)c1ccc(C(=C2C=CC(=[N+](CC)CC)C=C2)c2ccc(S(=O)(=O)[O-])cc2S(=O)(=O)[O-])cc1.[Na+] [Blue V, Acid Blue 1]
Toxicity (approved for human injection) (human): nontoxic
Depth of penetration (Tape strips = TS) (swine skin; Exp 2.13, Active, Anode, hydrogel with NaCl, 100 mg/ml in ddw with 10% ethanol, current = 500 μA/cm^2, 20 min): Anode - TS# 3
Depth of penetration (Tape strips = TS) (swine skin; Exp 2.13, Active, Cathode, hydrogel with NaCl, 100 mg/ml in ddw with 10% ethanol, current = 500 μA/cm^2, 20 min): Cathode - TS# >4
Depth of penetration (Tape strips = TS) (swine skin; Exp 2.13, Passive, hydrogel with NaCl, 100 mg/ml in ddw with 10% ethanol, 20 min): TS# 3
Penetration depth with NaCl hydrogel compared with KCl hydrogel (swine skin; Exp 2.13 compared with Exp 2.6): lower
Depth of penetration (Tape strips = TS) (swine skin; Exp 2.6, Active, Anode, 100 mg/ml in ddw, stretched skin, current = 500 μA/cm^2, 30 min): Anode - TS# 5
Depth of penetration (Tape strips = TS) (swine skin; Exp 2.6, Active, Cathode, 100 mg/ml in ddw, stretched skin, current = 500 μA/cm^2, 30 min): Cathode - TS# >6
Depth of penetration (Tape strips = TS) (swine skin; Exp 2.6, Passive, 100 mg/ml in ddw, stretched skin, 30 min): TS# 4
Depth of penetration (Tape strips = TS) (swine skin; Exp 2.8, Active, Anode, 100 mg/ml in ddw, hydrogel soaked in ddw for only few seconds, current = 500 μA/cm^2): Anode - TS# 4
Depth of penetration (Tape strips = TS) (swine skin; Exp 2.8, Active, Cathode, 100 mg/ml in ddw, hydrogel soaked in ddw for only few seconds, current = 500 μA/cm^2): Cathode - TS# >7
Depth of penetration (Tape strips = TS) (swine skin; Exp 2.8, Passive, 100 mg/ml in ddw, hydrogel soaked in ddw for only few seconds): TS# 4
Time after which the dye completely faded (tattoo life span) (human skin; Active With polyester): after 10 days.
Time after which the dye completely faded (tattoo life span) (human skin; Active Without polyester): after 7 days.
Solubility in water [1]: soluble in water
Effect of iontophoresis on skin penetration depth (swine ear skin): increased

SMILES: CCN(Cc1cccc(S(=O)(=O)[O-])c1)c1ccc(C(=C2C=CC(=[N+](CC)Cc3cccc(S(=O)(=O)[O-])c3)C=C2)c2ccccc2S(=O)(=O)[O-])cc1.[Na+].[Na+] [Blue no. 1, FD&C Blue no. 1]
Toxicity (mice; SC in mice): 5.5 gm/kg
Current ([2]; 2 mg/ml in water, 3 V): None
Current ([2]; 6 mg/ml in water, 3 V): ˜0.3 mA
Current ([2]; 6 mg/ml in water, 3.92 V): 1 mA
Current ([2]; 10 mg/ml in water, 3 V): ˜0.4 mA
Current ([2]; 10 mg/ml in water, 3.69 V): 1 mA
Current ([2]; 20 mg/ml in water, 3 V): ˜0.4 mA
Current ([2]; 20 mg/ml in water, 3.69 V): 1 mA
Solubility (Solubility of the dyes [3]; 2 mg/ml in water): Soluble
Solubility (Solubility of the dyes [3]; 6 mg/ml in water): Soluble
Solubility (Solubility of the dyes [3]; 10 mg/ml in water): Soluble
Solubility (Solubility of the dyes [3]; 20 mg/ml in water): Soluble

SMILES: Cc1ccc(Nc2ccc(Nc3ccc(C)cc3)c3c2C(=O)c2ccccc2C3=O)cc1 [Green no. 6, D&C Green no. 6]
Toxicity, LD50 (mice): LD50 = 0.25 gm/kg
Solubility (Solubility of the dyes [4]; 2.5 mg/ml + 30% ethanol): Insoluble
Solubility (Solubility of the dyes [4]; 10 mg/ml + 30% ethanol): Insoluble
Solubility (Solubility of the dyes [3]; 10 mg/ml in water): Insoluble

Effect of iontophoresis on skin penetration depth (swine ear skin): not affected
SMILES: CC1(C)C(/C=C/C=C/C=C/C=C2\N(CCCCS(=O)(=O)O)c3ccc4ccccc4c3C2(C)C)=[N+](CCCCS(=O)(=O)[O-])c2ccc3ccccc3c21 [Green, Indocyanine green, reference compound]
Toxicity (approved for human injection) (human): nontoxic
Solubility in water [1]: soluble in water

SMILES: COc1cc(S(=O)(=O)[O-])c(C)cc1N=Nc1c(O)ccc2cc(S(=O)(=O)[O-])ccc12.[Na+].[Na+] [Red no. 40, FD&C Red no. 40]
Current ([2]; 10 mg/ml in water, 3 V): ˜0.3 mA
Current ([2]; 10 mg/ml in water, 4.15 V): 1 mA
Current ([2]; 20 mg/ml in water, 3 V): 1.1 mA
Toxicity, LD50 (rabbit): LD50 > 10 gm/kg,
Solubility (Solubility of the dyes [3]; 10 mg/ml in water): Soluble
Solubility (Solubility of the dyes [3]; 20 mg/ml in water): Soluble

SMILES: O=S(=O)([O-])c1ccc(N=Nc2c(O)ccc3cc(S(=O)(=O)[O-])ccc23)cc1.[Na+].[Na+] [Yellow no. 6, FD&C Yellow no. 6]
Toxicity, LD50 (mice): LD50 = 4.6 gm/kg
Current ([2]; 20 mg/ml in water, 3 V): 1.3 mA
